The values below come from US8575158B2, “1-phenyl-substituted heterocyclyl derivatives and their use as prostaglandin D2 receptor modulators” (Actelion Pharmaceuticals Ltd., priority 2010, dated 2013).

This test addresses T1, hCRTH2 receptor (Homo sapiens, UniProt Q9Y5Y4).
T1 construct: expressed in transfected cells; host or cells: HEK293
T1 sequence (Q9Y5Y4 1-395): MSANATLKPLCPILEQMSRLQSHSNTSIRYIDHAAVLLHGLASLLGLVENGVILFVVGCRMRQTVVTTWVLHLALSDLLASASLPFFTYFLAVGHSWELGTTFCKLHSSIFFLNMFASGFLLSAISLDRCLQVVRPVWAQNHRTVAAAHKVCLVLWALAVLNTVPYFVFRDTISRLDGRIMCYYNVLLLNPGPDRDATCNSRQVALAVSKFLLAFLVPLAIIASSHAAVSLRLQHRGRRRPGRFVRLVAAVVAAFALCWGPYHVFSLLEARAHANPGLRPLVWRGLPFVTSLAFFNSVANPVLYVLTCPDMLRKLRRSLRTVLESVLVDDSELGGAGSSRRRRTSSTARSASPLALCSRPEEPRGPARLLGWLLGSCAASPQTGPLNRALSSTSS
Kind of test: Radioligand displacement assay (3H-PGD2) on hCRTH2 receptor membranes. Type of test: binding. Conditions: antagonistic activity.

[1] abbreviates: 3H-PGD2 radioligand displacement, HEK293-hCRTH2 membranes.
Where [2] appears, read: radioligand displacement (3H-PGD2), hCRTH2 receptor membranes.
Where [3] appears, read: 3H-PGD2 displacement on HEK293-hCRTH2 membrane fragments.

In the case of `N#Cc1ncccc1OCC(=O)N1CCc2ccccc2C1c1cc(Cl)ccc1OCC(=O)O` (racemic) [Example 480], the IC50 under setting [1] was determined as 104 nM. As to `O=C(O)COc1ccc(Cl)cc1C1c2ccccc2CCN1C(=O)COc1ccc(C(F)(F)F)nc1` (racemic) [Example 481], the IC50 under setting [1] came to 143 nM.

`O=C(O)COc1ccc(Cl)cc1C1c2ccccc2CCN1C(=O)COc1cccnc1F` (racemic) [Example 482] came in with a 50% inhibitory concentration (IC50) under setting [1] of 199 nM. This IC50 and that of the compound before are within 1.5-fold of each other. Under setting [1], `Cn1cnc2cc(OCC(=O)N3CCc4ccccc4C3c3cc(Cl)ccc3OCC(=O)O)cnc21` (racemic) [Example 483] had an IC50 of 470 nM. Still for that read-out and setting: then `COc1ncc(C)cc1OCC(=O)N1CCc2ccccc2C1c1cc(Cl)ccc1OCC(=O)O` (racemic) [Example 484], with 161 nM; and `COc1cc(OCC(=O)N2CCc3ccccc3C2c2cc(Cl)ccc2OCC(=O)O)cnc1OC` (racemic) [Example 485], with 316 nM; and `COc1ccc(OCC(=O)N2CCc3ccccc3C2c2cc(Cl)ccc2OCC(=O)O)cn1` (racemic) [Example 486], with 371 nM. Consider `O=C(O)COc1ccc(Cl)cc1C1c2ccccc2CCN1C(=O)COc1cnccc1Cl` (racemic) [Example 487], for which the IC50 under setting [1] was 400 nM.

Compound `Cc1cn(CC(=O)N2CCc3ccccc3C2c2cc(Cl)ccc2OCC(=O)O)c2ccccc12` (racemic) [Example 488] had a half-maximal inhibitory concentration (IC50) under setting [1] of 108 nM. On to `COc1ccc2c(ccn2CC(=O)N2CCc3ccccc3C2c2cc(Cl)ccc2OCC(=O)O)c1` (racemic) [Example 489], for which the 50% inhibitory concentration (IC50) under setting [1] was found to be 319 nM. This IC50 is about 3-fold higher than that of the compound before. Still for that read-out and setting: then `O=C(O)COc1ccc(Cl)cc1C1c2ccccc2CCN1C(=O)NCc1ccccc1Cl` (racemic) [Example 490], with 15.1 nM. Consider `O=C(O)COc1ccc(Cl)cc1C1c2ccccc2CCN1C(=O)NCc1cccc(F)c1` (racemic) [Example 491], for which the IC50 under setting [1] is 19.8 nM. This IC50 and that of the compound before are within 1.5-fold of each other. `O=C(O)COc1ccc(Cl)cc1C1c2ccccc2CCN1C(=O)NCc1ccccc1` (racemic) [Example 492] came in with an IC50 under setting [1] of 16.6 nM. The IC50 values of the last two compounds are within 1.5-fold of each other. On the same count and under the same terms, the same measure for `O=C(O)COc1ccc(Cl)cc1C1c2ccccc2CCN1C(=O)NCCc1ccccc1` (racemic) [Example 493]: 22.5 nM; for `O=C(O)COc1ccc(Cl)cc1C1c2ccccc2CCN1C(=O)NCc1ccc(F)cc1` (racemic) [Example 494]: 17 nM. Turning to `O=C(O)COc1ccc(Cl)cc1C1c2ccccc2CCN1C(=O)NCc1ccccc1F` (racemic) [Example 495], the half-inhibitory concentration (IC50) under setting [1] is 24.1 nM. For the compound `CCCCNC(=O)N1CCc2ccccc2C1c1cc(Cl)ccc1OCC(=O)O` (racemic) [Example 496], the IC50 under setting [1] is 62.7 nM. `O=C(O)COc1ccc(F)cc1C1c2cc(-c3ccc(F)cc3)ccc2CCN1C(=O)OCc1ccccc1` (racemic) [Example 497]: under setting [1], the IC50 worked out at 793 nM. `O=C(O)COc1ccc(F)cc1C1c2cc(-c3cncnc3)ccc2CCN1C(=O)OCc1ccccc1` (racemic) [Example 498] registered an IC50 under setting [1] of 381 nM. Turning to `O=C(O)COc1ccc(F)cc1C1c2ccccc2CN1C(=O)OCc1ccccc1` (racemic) [Example 499], the IC50 under setting [1] is 25.4 nM. This IC50 lies about 15-fold lower than the previous one. `O=C(O)COc1ccc(Cl)cc1C1c2ccc(F)cc2CN1C(=O)OCc1ccccc1` (racemic) [Example 500]: the IC50 under setting [1] is 12.9 nM. This IC50 is about 2-fold lower than that of the compound before. Still for that read-out and setting: then `O=C(O)COc1ccc(Cl)cc1C1c2cccc(F)c2CN1C(=O)OCc1ccccc1` (racemic) [Example 501], with 8.12 nM. The same measure, in the same setting: then `COc1ccccc1OCC(=O)N1Cc2ccccc2C1c1cc(Cl)ccc1OCC(=O)O` (racemic) [Example 502], with 56.2 nM; and `O=C(O)COc1ccc(Cl)cc1C1c2ccccc2CN1C(=O)COc1ccc(F)cc1` (racemic) [Example 504], with 33 nM; and `O=C(O)COc1ccc(Cl)cc1C1c2ccccc2CN1C(=O)CCc1cccnc1` (racemic) [Example 505], with 189 nM. In the case of `Cc1ccccc1CCC(=O)N1Cc2ccccc2C1c1cc(Cl)ccc1OCC(=O)O` (racemic) [Example 506], the 50% inhibitory concentration (IC50) under setting [1] came out at 78.8 nM. `O=C(O)COc1ccc(Cl)cc1C1c2ccccc2CN1C(=O)Cn1ccc2ccccc21` (racemic) [Example 507] had an IC50 under setting [1] of 129 nM. In turn, `CCn1c(C)c(CCC(=O)N2Cc3ccccc3C2c2cc(Cl)ccc2OCC(=O)O)c2ccccc21` (racemic) [Example 508] showed a concentration for half-maximal inhibition (IC50) under setting [1] of 127 nM. Same read-out and setting: then `O=C(O)COc1ccc(Cl)cc1C1c2ccccc2CN1C(=O)COc1cccc2cccnc12` (racemic) [Example 509], with 37.8 nM.

Consider `Cc1[nH]c2ccccc2c1CCC(=O)N1Cc2ccccc2C1c1cc(Cl)ccc1OCC(=O)O` (racemic) [Example 510], for which, under setting [1], the half-maximal inhibitory concentration (IC50) came to 180 nM. Same read-out and setting: the same measure for `COc1ccc2[nH]cc(CCC(=O)N3Cc4ccccc4C3c3cc(Cl)ccc3OCC(=O)O)c2c1` (racemic) [Example 511]: 14.8 nM. With `Cc1ccc(OCC(=O)N2Cc3ccccc3C2c2cc(Cl)ccc2OCC(=O)O)c(C)n1` (racemic) [Example 512], under setting [1], the IC50 is 42.5 nM. Turning to `Cn1cc(CCC(=O)N2Cc3ccccc3C2c2cc(Cl)ccc2OCC(=O)O)c2ccccc21` (racemic) [Example 513], under setting [1], the half-inhibitory concentration (IC50) is 25.9 nM.

Take `O=C(O)COc1ccc(Cl)cc1C1c2ccccc2CN1C(=O)CCN1CCc2ccccc21` (racemic) [Example 514]: the concentration for half-maximal inhibition (IC50) under setting [1] worked out at 38.8 nM. `O=C(O)COc1ccc(Cl)cc1C1c2ccccc2CN1C(=O)CCN1CCCc2ccccc21` (racemic) [Example 515] yielded an IC50 under setting [1] of 60.1 nM. This IC50 is about 1.5-fold higher than that of the compound before. Take `O=C(O)COc1ccc(Cl)cc1C1c2ccccc2CN1C(=O)CCn1ncc2ccccc21` (racemic) [Example 516]: under setting [1], the IC50 worked out at 12.5 nM. Compound `O=C(O)COc1ccc(Cl)cc1C1c2ccccc2CN1C(=O)CCOc1cccc(F)c1` (racemic) [Example 517] came in with an IC50 under setting [1] of 123 nM. The same measure, in the same setting: the same measure for `COc1ccc2onc(CC(=O)N3Cc4ccccc4C3c3cc(Cl)ccc3OCC(=O)O)c2c1` (racemic) [Example 518]: 20.1 nM; for `Cc1cn(CCC(=O)N2Cc3ccccc3C2c2cc(Cl)ccc2OCC(=O)O)c2ccccc12` (racemic) [Example 519]: 37.4 nM. Turning to `O=C(O)COc1ccc(Cl)cc1C1c2ccccc2CN1C(=O)CCOc1ccc(F)cc1` (racemic) [Example 520], the IC50 under setting [1] worked out at 130 nM.

Under setting [1], `O=C(O)COc1ccc(Cl)cc1C1c2ccccc2CN1C(=O)COCc1ccccc1Cl` (racemic) [Example 521] came in with a 50% inhibitory concentration (IC50) of 9.11 nM. In turn, `O=C(O)COc1ccc(Cl)cc1C1c2ccccc2CN1C(=O)CCOc1ccccc1F` (racemic) [Example 522] returned a concentration for half-maximal inhibition (IC50) under setting [1] of 11.7 nM. The IC50 values of the last two compounds are within 1.5-fold of each other. Under setting [1], `O=C(O)COc1ccc(Cl)cc1C1c2ccc(F)cc2CN1C(=O)CCn1ncc2ccccc21` (racemic) [Example 526, (±)-{4-Chloro-2-[5-fluoro-2-(3-indazol-1-yl-propionyl)-2,3-dihydro-1H-isoindol-1-yl]-phenoxy}-acetic acid] showed a 50% inhibitory concentration (IC50) of 4.53 nM. `O=C(O)COc1ccc(Cl)cc1C1c2ccccc2CN1C(=O)NCc1ccccc1F` (racemic) [Example 552]: under setting [1], the concentration for half-maximal inhibition (IC50) came out at 19.6 nM. This IC50 lies about 4.3-fold higher than the previous one. Take `O=C(O)COc1ccc(Cl)cc1C1c2ccccc2CN1C(=O)NCc1cccc(F)c1` (racemic) [Example 553]: under setting [1], the IC50 was found to be 17.4 nM. The IC50 values of the last two compounds are within 1.5-fold of each other. For the compound `O=C(O)COc1ccc(Cl)cc1C1c2ccccc2CN1C(=O)NCc1ccc(F)cc1` (racemic) [Example 554], the concentration for half-maximal inhibition (IC50) under setting [1] was determined as 25.7 nM.

Consider `O=C(O)COc1ccc(Cl)cc1C1c2ccccc2CN1C(=O)NCc1ccccc1` (racemic) [Example 555], for which the 50% inhibitory concentration (IC50) under setting [1] came to 14.5 nM.

The compound `O=C(O)COc1ccc(Cl)cc1C1c2ccccc2CN1C(=O)NCCc1ccccc1` (racemic) [Example 556] came in with an IC50 under setting [1] of 11.7 nM. Consider `O=C(O)COc1ccc(Cl)cc1C1c2ccccc2CN1C(=O)NCc1ccccc1Cl` (racemic) [Example 557], for which the IC50 under setting [1] was 13.7 nM. On the same count and under the same terms, the same measure for `O=C(O)COc1ccc(Cl)cc1C1c2ccc(Cl)c(Cl)c2CN1C(=O)OCc1ccccc1` (racemic) [Example 558]: 16.9 nM; for `O=C(O)COc1ccc(Cl)cc1C1c2ccc(F)c(F)c2CN1C(=O)OCc1ccccc1` (racemic) [Example 559]: 11.2 nM.

Take `O=C(OCc1ccccc1)N1CCc2ccccc2C1c1cc(Cl)ccc1OCc1noc(=O)[nH]1` (racemic) [Example 572, (±)-1-[5-Chloro-2-(5-oxo-4,5-dihydro-[1,2,4]oxadiazol-3-ylmethoxy)-phenyl]-3,4-dihydro-1H-isoquinoline-2-carboxylic acid benzyl ester]: under setting [2], the IC50 was 325 nM. In other words, the sub-micromolar range.

`O=C(OCc1ccccc1)N1CCc2ccccc2C1c1cc(Cl)ccc1OCc1cc(O)no1` (racemic) [Example 573, (±)-1-[5-Chloro-2-(3-hydroxy-isoxazol-5-ylmethoxy)-phenyl]-3,4-dihydro-1H-isoquinoline-2-carboxylic acid benzyl ester] came in with an IC50 under setting [2] of 15.3 nM. Compound `O=C(O)COc1ccc(Cl)cc1C1c2ccccc2CCN1C(=O)[C@@H]1C[C@H]1c1ccccc1Cl` (relative stereo) [Example 82, (4-Chloro-2-{2-[trans-2-(2-chloro-phenyl)-cyclopropanecarbonyl]-1,2,3,4-tetrahydro-isoquinolin-1-yl}-phenoxy)-acetic acid] registered a half-maximal inhibitory concentration (IC50) under setting [3] of 4.8 nM. That is a single-digit nanomolar value. Compound `O=C(O)COc1ccc(Cl)cc1C1c2cccc(F)c2CCN1C(=O)[C@@H]1C[C@H]1c1ccccc1` (relative stereo) [Example 117, {4-Chloro-2-[5-fluoro-2-(trans-2-phenyl-cyclopropanecarbonyl)-1,2,3,4-tetrahydro-isoquinolin-1-yl]-phenoxy}-acetic acid] yielded a 50% inhibitory concentration (IC50) under setting [3] of 32.5 nM.

For orientation: IC50 means the concentration that inhibits the measured activity by half. The low end stands for inhibition by little substance, the high end for a need for much substance.
